According to the supplement of paper PMC8967900:

System: MN-60
Experiment: selective drug sensitivity score (sDSS, relative to normal bone marrow) (sDSS (score)); higher = more potent and effective on the cell line relative to normal bone marrow cells
Settings: 72 h
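Also: ALL cell lines in 384-well plates, five doses spanning 10,000-fold, each plate scaled between vehicle and 100 µmol/L benzalkonium chloride controls, sDSS an adapted area-under-curve metric.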

Going from C=CCN(/C=C1/C(=O)O[C@H](COC)[C@@]2(C)C1=C(O)C(=O)C1=C2[C@H](OC(C)=O)C[C@]2(C)C(=O)CC[C@@H]12)CC=C [Sonolisib] (top concentration 10000 nM) to COc1cc(N2CCC(N3CCN(C)CC3)CC2)ccc1Nc1ncnc(Nc2ccccc2S(=O)(=O)C(C)C)n1 [ASP3026] (top concentration 10000 nM), the “selective drug sensitivity score” value rises from -0.76 to 0.66.

Compared with C[C@H]1CNCCCN1S(=O)(=O)c1cccc2cncc(F)c12 [Ripasudil] (top concentration 10000 nM), C[C@@H](Oc1cc(-c2cnn(C3CCNCC3)c2)cnc1N)c1c(Cl)ccc(F)c1Cl [Crizotinib] (top concentration 1000 nM) is lower in “selective drug sensitivity score” value: -0.22 for the first, -0.54 for the second.

First: CCN(CC)CCCC(C)Nc1ccnc2cc(Cl)ccc12 (stereo not drawn) [Chloroquine] (top concentration 100000 nM)
Second: CNC(=O)c1ccc(-c2cnc3ncc(Cc4ccc5ncccc5c4)n3n2)cc1F [Capmatinib] (top concentration 1000 nM)
The “selective drug sensitivity score” value of the first is lower: -2.74 for the first, -0.06 for the second.

Compared with N#CC(c1ccnc(OCc2ccc(CN3CCOCC3)cc2)n1)c1nc2ccccc2s1 (stereo not drawn) [Bentamapimod] (top concentration 10000 nM), COc1cc2/c(=N/c3ccc(Br)cc3F)nc[nH]c2cc1OCC1CCN(C)CC1 [Vandetanib] (top concentration 1000 nM) is lower in “selective drug sensitivity score” value: 2.44 for the first, -0.22 for the second.

Compared with COCCOc1cnc2ccn([C@H](C)c3nnc4c(F)cc(-c5cnn(C)c5)cn34)c(=O)c2c1 [AMG-337] (top concentration 10000 nM), Cc1cnc(NC(=O)Nc2cc(Br)c(C)cc2OC[C@@H]2CNCCO2)cn1 [Rabusertib] (top concentration 1000 nM) is higher in “selective drug sensitivity score” value: -0.06 for the first, 3.56 for the second.

System: KARPAS-45
Experiment: as above
Settings: 72 h

Compared with O=C1c2c(O)ccc(O)c2C(=O)c2c(NCCNCCO)ccc(NCCNCCO)c21 [Mitoxantrone] (top concentration 1000 nM), CC1(C)CNc2cc(NC(=O)c3cccnc3NCc3ccncc3)ccc21 [Motesanib] (top concentration 10000 nM) is higher in “selective drug sensitivity score” value: -1.66 for the first, -0.22 for the second.

Compared with Nc1ncnc2c1c(COc1cccc(Cl)c1)nn2C1CCOCC1 (top concentration 10000 nM), C[C@@H](Oc1cc(-c2cnn(C3CCNCC3)c2)cnc1N)c1c(Cl)ccc(F)c1Cl [Crizotinib] (top concentration 1000 nM) is lower in “selective drug sensitivity score” value: 0.26 for the first, -0.24 for the second.

Going from NC(=O)c1cccc(-c2cccc(OC(=O)NC3CCCCC3)c2)c1 [URB597] (top concentration 1000 nM) to CCCN(CCC)C(=O)C1=Cc2ccc(-c3ccc(C(=O)N4CCCC4)cc3)cc2N=C(N)C1 [Motolimod] (top concentration 10000 nM), the “selective drug sensitivity score” value falls from -0.46 to -3.48.

First: CCCOc1ccn2c(C(C)=O)cc(-c3ccccc3S(C)(=O)=O)c2c1 [GSK2801] (top concentration 10000 nM)
Second: COCCOc1cnc2ccn([C@H](C)c3nnc4c(F)cc(-c5cnn(C)c5)cn34)c(=O)c2c1 [AMG-337] (top concentration 10000 nM)
The “selective drug sensitivity score” value of the first is higher: 0.44 for the first, -0.06 for the second.

Going from Nc1cc(COc2c(Cl)cc(C[C@H](N)C(=O)O)cc2Cl)c2oc(-c3ccccc3)nc2c1 [JPH203] (top concentration 5000 nM) to N#CC(c1ccnc(OCc2ccc(CN3CCOCC3)cc2)n1)c1nc2ccccc2s1 (stereo not drawn) [Bentamapimod] (top concentration 10000 nM), the “selective drug sensitivity score” value rises from 0 to 5.54.

First: CC/C(=C(\c1ccccc1)c1ccc(OCCN(C)C)cc1)c1ccccc1 [Tamoxifen] (top concentration 10000 nM)
Second: CCN(CC)CCCC(C)Nc1ccnc2cc(Cl)ccc12 (stereo not drawn) [Chloroquine] (top concentration 100000 nM)
The “selective drug sensitivity score” value of the first is higher: 1.92 for the first, 1.26 for the second.

First: NC(=S)N/N=C/c1ncccc1N [Triapine] (top concentration 10000 nM)
Second: CNC(=O)c1ccc(-c2cnc3ncc(Cc4ccc5ncccc5c4)n3n2)cc1F [Capmatinib] (top concentration 1000 nM)
The “selective drug sensitivity score” value of the first is lower: -0.12 for the first, -0.06 for the second.

First: C=CCN(/C=C1/C(=O)O[C@H](COC)[C@@]2(C)C1=C(O)C(=O)C1=C2[C@H](OC(C)=O)C[C@]2(C)C(=O)CC[C@@H]12)CC=C [Sonolisib] (top concentration 10000 nM)
Second: COc1cc(N2CCC(N3CCN(C)CC3)CC2)ccc1Nc1ncnc(Nc2ccccc2S(=O)(=O)C(C)C)n1 [ASP3026] (top concentration 10000 nM)
The “selective drug sensitivity score” value of the first is lower: -0.76 for the first, 0.56 for the second.

First: C[C@H]1CNCCCN1S(=O)(=O)c1cccc2cncc(F)c12 [Ripasudil] (top concentration 10000 nM)
Second: Cc1cnc(NC(=O)Nc2cc(Br)c(C)cc2OC[C@@H]2CNCCO2)cn1 [Rabusertib] (top concentration 1000 nM)
The “selective drug sensitivity score” value of the first is higher: 0.88 for the first, 0.36 for the second.

With COc1cc2/c(=N/c3ccc(Br)cc3F)nc[nH]c2cc1OCC1CCN(C)CC1 [Vandetanib] (top concentration 1000 nM) the “selective drug sensitivity score” value was 0.68.

System: COG-LL-332h
Experiment: as above
Settings: 72 h

First: O=C1c2c(O)ccc(O)c2C(=O)c2c(NCCNCCO)ccc(NCCNCCO)c21 [Mitoxantrone] (top concentration 1000 nM)
Second: CC1(C)CNc2cc(NC(=O)c3cccnc3NCc3ccncc3)ccc21 [Motesanib] (top concentration 10000 nM)
The “selective drug sensitivity score” value of the first is higher: 11.7 for the first, -0.22 for the second.

Compared with Nc1ncnc2c1c(COc1cccc(Cl)c1)nn2C1CCOCC1 (top concentration 10000 nM), C[C@@H](Oc1cc(-c2cnn(C3CCNCC3)c2)cnc1N)c1c(Cl)ccc(F)c1Cl [Crizotinib] (top concentration 1000 nM) is higher in “selective drug sensitivity score” value: -0.14 for the first, 2.76 for the second.

First: NC(=O)c1cccc(-c2cccc(OC(=O)NC3CCCCC3)c2)c1 [URB597] (top concentration 1000 nM)
Second: CCCN(CCC)C(=O)C1=Cc2ccc(-c3ccc(C(=O)N4CCCC4)cc3)cc2N=C(N)C1 [Motolimod] (top concentration 10000 nM)
The “selective drug sensitivity score” value of the first is higher: -0.46 for the first, -3.18 for the second.

First: CCCOc1ccn2c(C(C)=O)cc(-c3ccccc3S(C)(=O)=O)c2c1 [GSK2801] (top concentration 10000 nM)
Second: COCCOc1cnc2ccn([C@H](C)c3nnc4c(F)cc(-c5cnn(C)c5)cn34)c(=O)c2c1 [AMG-337] (top concentration 10000 nM)
The “selective drug sensitivity score” value of the first is higher: 2.04 for the first, -0.06 for the second.

First: Nc1cc(COc2c(Cl)cc(C[C@H](N)C(=O)O)cc2Cl)c2oc(-c3ccccc3)nc2c1 [JPH203] (top concentration 5000 nM)
Second: N#CC(c1ccnc(OCc2ccc(CN3CCOCC3)cc2)n1)c1nc2ccccc2s1 (stereo not drawn) [Bentamapimod] (top concentration 10000 nM)
The “selective drug sensitivity score” value of the first is lower: 0 for the first, 2.94 for the second.

Going from CC/C(=C(\c1ccccc1)c1ccc(OCCN(C)C)cc1)c1ccccc1 [Tamoxifen] (top concentration 10000 nM) to CCN(CC)CCCC(C)Nc1ccnc2cc(Cl)ccc12 (stereo not drawn) [Chloroquine] (top concentration 100000 nM), the “selective drug sensitivity score” value falls from 1.32 to -0.64.

Going from NC(=S)N/N=C/c1ncccc1N [Triapine] (top concentration 10000 nM) to CNC(=O)c1ccc(-c2cnc3ncc(Cc4ccc5ncccc5c4)n3n2)cc1F [Capmatinib] (top concentration 1000 nM), the “selective drug sensitivity score” value falls from 2.78 to -0.06.

Compared with C=CCN(/C=C1/C(=O)O[C@H](COC)[C@@]2(C)C1=C(O)C(=O)C1=C2[C@H](OC(C)=O)C[C@]2(C)C(=O)CC[C@@H]12)CC=C [Sonolisib] (top concentration 10000 nM), COc1cc(N2CCC(N3CCN(C)CC3)CC2)ccc1Nc1ncnc(Nc2ccccc2S(=O)(=O)C(C)C)n1 [ASP3026] (top concentration 10000 nM) is higher in “selective drug sensitivity score” value: -0.66 for the first, -0.04 for the second.

Going from C[C@H]1CNCCCN1S(=O)(=O)c1cccc2cncc(F)c12 [Ripasudil] (top concentration 10000 nM) to Cc1cnc(NC(=O)Nc2cc(Br)c(C)cc2OC[C@@H]2CNCCO2)cn1 [Rabusertib] (top concentration 1000 nM), the “selective drug sensitivity score” value falls from 1.78 to -0.74.

COc1cc2/c(=N/c3ccc(Br)cc3F)nc[nH]c2cc1OCC1CCN(C)CC1 [Vandetanib] (top concentration 1000 nM) was tested, and the “selective drug sensitivity score” value was 0.28.
